Assays:
Format in all cases: in vivo, human
severe nodulocystic acne = test: Multicenter double-blind placebo-controlled study of oral tazarotene in severe nodulocystic acne; details: for patients withdrawing due to adverse events: treatment period
Source text: A multicenter, double-blind, randomized, placebo-controlled parallel-group study is undertaken to determine the efficacy of orally administered tazarotene in treating severe nodulocystic acne.
In addition, washout periods for other medications for this study are: 1 week for vitamin A supplements >5000 IU; 2 weeks for topical anti-acne medications (e.g., retinoids, azelaic acid, benzoyl peroxide); 2 weeks for topical or systemic antibiotic therapy that may alter the course of acne; and 6 months for systemic retinoids.
Patients are randomized to receive placebo or oral tazarotene (0.75, 1.5, 3, or 6 mg), in a 1:1:1:1:1 ratio once daily for 24 weeks. After this, the patients are followed without treatment for an additional 12 weeks. Patients discontinuing from the treatment period due to adverse effects or lack of efficacy are eligible for entry into the post-treatment phase.
In the study, overall acne severity is rated as: none (no inflammatory acne lesions); mild (few to several papules or pustules, no nodulocystic lesions); moderate (several to many papules or pustules, few to several nodulocystic lesions); and severe (numerous or extensive papules or pustules, many, for example, at least about 5 or at least about 10, nodulocystic lesions).
Treatment success is defined as at least moderate (about 50%) improvement on the following 7-point global response scale: • 0=completely cleared • 1=almost cleared (about 90% improvement) • 2=marked response (about 75% improvement) • 3=moderate response (about 50% improvement) • 4=slight response (about 25% improvement) • 5=condition unchanged • 6=condition worsened
In this study, facial nodulocystic lesion count includes lesions greater than 5 mm in size. Facial papular/pustular lesion count includes lesions less than or equal to 5 mm in size. Facial non-inflammatory lesion count includes open and closed comedones.
Sebum output is assessed every 4 weeks at selected centers using the Sebutape® patches, sold by Cuderm Corporation. Urinalysis, chemistry, and hematology values are monitored. Bone formation and resorption assessments (serum bone alkaline phosphatase and serum amino terminal telopeptides, respectively) at selected centers are monitored.
Bone mineral density of spine and proximal femur at selected centers is monitored. Ligament calcification or osteophyte formation (lateral X-ray of the cervical and thoracic spine, and ankle calcaneous) is monitored. Epiphyseal growth plate closure (internal oblique X-ray of the ankle in patients less than or equal to 21 years old) is monitored.

severe psoriasis = test: Patient with severe psoriasis taking Ortho-Novum treated with tazarotene; details: 6 mg per day, after 30 days
Source text: The patient presents symptoms of severe psoriasis. The symptoms include lesions approximately 4 to 10 centimeters across appearing as raised patches of wine red skin many of which are covered in silvery white scales. The lesions are mostly dry and rough, and quite often noticeably warm to the touch. The lesions are present on the elbows, knees, scalp, and groin area. The patient experiences intense burning and itching associated with the lesions.
The patient is currently taking Ortho-Novum® for contraception.
Tazarotene at a dose of 6 mg per day is prescribed.

[1] = Phase 3 studies of orally administered tazarotene for psoriasis, adverse event monitoring; details: Taz 4.5 mg
Description: A series of Phase 3 studies are conducted on orally administered tazarotene for the treatment of psoriasis. Adverse events (side effects) are monitored. In addition, published data for acitretin's side effects are also considered.

[2] = 0.75 to 6 mg once daily, 24 weeks
[3] = Study 3, treated 3 months (N = 220)
[4] = Study 3, treated 6 months (N = 92)
[5] = combined data from Studies 1 and 2 (N = 348)

SMILES: CCOC(=O)c1ccc(C#Cc2ccc3c(c2)C(C)(C)CCS3)nc1 [tazarotene]
- patients withdrawing due to adverse events (severe nodulocystic acne; 0.75 mg group (2/35)): 6%
- patients withdrawing due to adverse events (severe nodulocystic acne; 1.5 mg group (0/37)): 0%
- incidence of treatment success vs placebo (severe nodulocystic acne; 3 mg and 6 mg, week 24 and post-treatment phase, p≦0.05): significantly higher incidence of treatment success
- patients withdrawing due to adverse events (severe nodulocystic acne; 3 mg group (2/37)): 5%
- patients withdrawing due to adverse events (severe nodulocystic acne; 6 mg group (1/36)): 3%
- reduction of overall acne severity vs placebo (severe nodulocystic acne; 6 mg, week 16 until end of post-treatment phase, p≦0.01): significantly more than placebo
- bone formation and resorption (serum bone alkaline phosphatase, amino terminal telopeptides) (severe nodulocystic acne; [2]): do not appear to be altered
- changes in urinalysis, chemistry, or hematology measures (liver function, triglycerides, total and HDL cholesterol) (severe nodulocystic acne; [2]): None of the treatment groups show any consistent clinically significant changes
- ligament calcification, osteophyte formation, or changes in bone density (severe nodulocystic acne; [2]): None of the treatment groups show any clinically significant
- percentage of patients with at least a 90% reduction in facial nodulocystic lesion count vs placebo (severe nodulocystic acne; 1.5, 3, and 6 mg groups, week 24): significantly greater
- sebum secretion (Sebutape method) (severe nodulocystic acne; oral, 0.75 to 6 mg, vs placebo): does not substantially reduce sebum secretion relative to placebo
- patients achieving treatment success (≧50% global improvement) (severe nodulocystic acne; three highest doses, by week 12): more than 70%
- patients achieving treatment success (≧50% global improvement) (severe nodulocystic acne; two highest doses, by week 24): more than 86%
- psoriasis symptoms and lesions (severe psoriasis): symptoms of itching and burning are relieved and the severity of their lesions are substantially lessened
- Alopecia [1, 3]: 1 (0.5) number (%) of patients
- Arthralgia [1, 3]: 28 (12.7) number (%) of patients
- Atrophy of skin [1, 3]: 0 (0.0) number (%) of patients
- Back pain [1, 3]: 7 (3.2) number (%) of patients
- Cheilitis [1, 3]: 149 (67.7) number (%) of patients
- Dry Skin [1, 3]: 47 (21.4) number (%) of patients
- Dry mouth/Oral dryness [1, 3]: 11 (5.0) number (%) of patients
- Epistaxis [1, 3]: 1 (0.5) number (%) of patients
- Erythematous rash/Erythema [1, 3]: 0 (0.0) number (%) of patients
- Hyperesthesia [1, 3]: 0 (0.0) number (%) of patients
- Nail Disorder [1, 3]: 1 (0.5) number (%) of patients
- Paresthesia [1, 3]: 3 (1.4) number (%) of patients
- Paronychia/Nail disorder [1, 3]: 1 (0.5) number (%) of patients
- Pruritus [1, 3]: 11 (5.0) number (%) of patients
- Rhinitis [1, 3]: 0 (0.0) number (%) of patients
- Rigors/Chills [1, 3]: 1 (0.5) number (%) of patients
- Skin peeling/Desquamation [1, 3]: 3 (1.4) number (%) of patients
- Sticky skin/Skin disorder [1, 3]: 0 (0.0) number (%) of patients
- Xerophthalmia/Eye disorder [1, 3]: 3 (1.4) number (%) of patients
- Alopecia [1, 4]: 5 (5.4) number (%) of patients
- Arthralgia [1, 4]: 30 (32.6) number (%) of patients
- Atrophy of skin [1, 4]: 0 (0.0) number (%) of patients
- Back pain [1, 4]: 10 (10.9) number (%) of patients
- Cheilitis [1, 4]: 65 (70.7) number (%) of patients
- Dry Skin [1, 4]: 24 (26.1) number (%) of patients
- Dry mouth/Oral dryness [1, 4]: 2 (2.2) number (%) of patients
- Epistaxis [1, 4]: 0 (0.0) number (%) of patients
- Erythematous rash/Erythema [1, 4]: 0 (0.0) number (%) of patients
- Hyperesthesia [1, 4]: 0 (0.0) number (%) of patients
- Nail Disorder [1, 4]: 1 (1.1) number (%) of patients
- Paresthesia [1, 4]: 1 (1.1) number (%) of patients
- Paronychia/Nail disorder [1, 4]: 1 (1.1) number (%) of patients
- Pruritus [1, 4]: 3 (3.3) number (%) of patients
- Rhinitis [1, 4]: 0 (0.0) number (%) of patients
- Rigors/Chills [1, 4]: 1 (1.1) number (%) of patients
- Skin peeling/Desquamation [1, 4]: 1 (1.1) number (%) of patients
- Sticky skin/Skin disorder [1, 4]: 0 (0.0) number (%) of patients
- Xerophthalmia/Eye disorder [1, 4]: 1 (1.1) number (%) of patients
- Alopecia [1, 5]: 1 (0.3) number (%) of patients
- Arthralgia [1, 5]: 60 (17.2) number (%) of patients
- Atrophy of skin [1, 5]: 0 (0.0) number (%) of patients
- Back pain [1, 5]: 16 (4.6) number (%) of patients
- Cheilitis [1, 5]: 228 (65.5) number (%) of patients
- Dry Skin [1, 5]: 82 (23.6) number (%) of patients
- Dry mouth/Oral dryness [1, 5]: 11 (3.2) number (%) of patients
- Epistaxis [1, 5]: 2 (0.6) number (%) of patients
- Erythematous rash/Erythema [1, 5]: 2 (0.6) number (%) of patients
- Hyperesthesia [1, 5]: 0 (0.0) number (%) of patients
- Nail Disorder [1, 5]: 2 (0.6) number (%) of patients
- Paresthesia [1, 5]: 7 (2.0) number (%) of patients
- Paronychia/Nail disorder [1, 5]: 2 (0.6) number (%) of patients
- Pruritus [1, 5]: 21 (6.0) number (%) of patients
- Rhinitis [1, 5]: 8 (2.3) number (%) of patients
- Rigors/Chills [1, 5]: 9 (2.6) number (%) of patients
- Skin peeling/Desquamation [1, 5]: 3 (0.9) number (%) of patients
- Sticky skin/Skin disorder [1, 5]: 1 (0.3) number (%) of patients
- Xerophthalmia/Eye disorder [1, 5]: 8 (2.3) number (%) of patients

— patent US20050026950A1, “Methods of therapeutic treatment using retinoids to achieve consistent bioavailability” (Allergan, Inc., priority 2003, published 2005)
